Measurements taken from ChEMBL document CHEMBL6109156, “Discovery of Dual PD-L1/HDAC3 Inhibitors for Tumor Immunotherapy” (J Med Chem, 2025).
Activity calls are given as the source filed them. The calls are words filed in the database; no cut-off is given here.

Experiments:
[1] = target: T1, Programmed cell death protein 1/Programmed cell death 1 ligand 1 (Homo sapiens) (UniProt Q15116+Q9NZQ7); experiment: Inhibition of PD-1/PD-L1 (unknown origin) interaction assessed as inhibition rate at 0.1 uM by HTRF assay relative to control; assay type: protein-complex assay
[2] = target: T1, Programmed cell death protein 1/Programmed cell death 1 ligand 1 (Homo sapiens); experiment: (§1) Inhibition of PD-1/PD-L1 (unknown origin) interaction assessed as inhibition rate at 1 uM by HTRF assay relative to control; assay type: protein-complex assay
Histone deacetylase 3 [3] = target: T2, Histone deacetylase 3 (Homo sapiens, UniProt O15379); experiment: Inhibition of human recombinant HDAC3 using Ac-Leu-Gly-Lys (Ac)-AMC as substrate at 1 uM preincubated for 10 mins followed by substrate addition and measured after 45 mins by TECAN microtiter plate reader analysis relative to control; conditions: time 55.0 min
T2 sequence (O15379 whole entry): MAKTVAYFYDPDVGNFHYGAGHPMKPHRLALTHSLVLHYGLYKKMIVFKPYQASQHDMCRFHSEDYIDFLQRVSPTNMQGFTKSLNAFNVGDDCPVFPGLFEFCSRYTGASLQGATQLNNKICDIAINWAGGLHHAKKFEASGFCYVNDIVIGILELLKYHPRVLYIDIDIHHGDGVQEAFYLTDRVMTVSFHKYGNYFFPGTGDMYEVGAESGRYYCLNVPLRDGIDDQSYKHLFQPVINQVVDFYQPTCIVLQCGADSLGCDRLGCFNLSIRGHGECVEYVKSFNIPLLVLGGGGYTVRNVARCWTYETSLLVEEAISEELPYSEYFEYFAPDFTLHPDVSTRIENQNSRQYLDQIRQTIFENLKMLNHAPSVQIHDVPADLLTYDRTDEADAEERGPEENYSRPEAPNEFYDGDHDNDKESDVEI

Histone deacetylase 1 = Histone deacetylase 1 (Homo sapiens, UniProt Q13547); experiment: Inhibition of human recombinant HDAC1 using Ac-Leu-Gly-Lys (Ac)-AMC as substrate preincubated for 10 mins followed by substrate addition and measured after 45 mins by TECAN microtiter plate reader analysis
Histone deacetylase 1, sequence (Q13547 whole entry): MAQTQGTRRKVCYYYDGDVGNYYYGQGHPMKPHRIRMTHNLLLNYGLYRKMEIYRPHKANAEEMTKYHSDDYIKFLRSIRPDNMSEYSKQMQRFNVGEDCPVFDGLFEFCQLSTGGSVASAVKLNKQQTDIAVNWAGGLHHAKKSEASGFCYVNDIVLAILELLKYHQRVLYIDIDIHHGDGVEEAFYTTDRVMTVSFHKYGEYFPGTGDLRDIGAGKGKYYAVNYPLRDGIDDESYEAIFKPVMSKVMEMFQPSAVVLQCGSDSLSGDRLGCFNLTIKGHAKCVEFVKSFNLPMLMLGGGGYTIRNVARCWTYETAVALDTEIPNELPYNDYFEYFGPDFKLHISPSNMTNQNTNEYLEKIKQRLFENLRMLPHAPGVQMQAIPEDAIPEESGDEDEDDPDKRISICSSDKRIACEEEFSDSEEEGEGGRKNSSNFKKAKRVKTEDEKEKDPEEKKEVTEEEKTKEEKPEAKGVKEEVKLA

Histone deacetylase 8 = target: T3, Histone deacetylase 8 (Homo sapiens, UniProt Q9BY41); experiment: Inhibition of human recombinant HDAC8 using Ac-Leu-Gly-Lys (Tfa)-AMC as substrate preincubated for 10 mins followed by substrate addition and measured after 45 mins by TECAN microtiter plate reader analysis
T3 sequence (Q9BY41 whole entry): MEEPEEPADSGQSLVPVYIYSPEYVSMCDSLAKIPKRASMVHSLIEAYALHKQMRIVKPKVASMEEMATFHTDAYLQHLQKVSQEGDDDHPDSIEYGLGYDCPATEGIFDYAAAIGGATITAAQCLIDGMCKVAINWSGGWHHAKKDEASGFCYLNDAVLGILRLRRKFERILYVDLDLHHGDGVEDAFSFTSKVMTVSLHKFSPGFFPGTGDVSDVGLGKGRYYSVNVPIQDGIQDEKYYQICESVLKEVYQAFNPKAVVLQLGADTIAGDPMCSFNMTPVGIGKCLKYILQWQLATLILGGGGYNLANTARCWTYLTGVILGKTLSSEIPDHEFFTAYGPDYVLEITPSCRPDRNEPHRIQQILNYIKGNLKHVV

[4] = target: T4, Protein deacetylase HDAC6 (Homo sapiens, UniProt Q9UBN7); experiment: Inhibition of human recombinant HDAC6 using Ac-Leu-Gly-Lys (Ac)-AMC as substrate preincubated for 10 mins followed by substrate addition and measured after 45 mins by TECAN microtiter plate reader analysis
T4 sequence (Q9UBN7 whole entry): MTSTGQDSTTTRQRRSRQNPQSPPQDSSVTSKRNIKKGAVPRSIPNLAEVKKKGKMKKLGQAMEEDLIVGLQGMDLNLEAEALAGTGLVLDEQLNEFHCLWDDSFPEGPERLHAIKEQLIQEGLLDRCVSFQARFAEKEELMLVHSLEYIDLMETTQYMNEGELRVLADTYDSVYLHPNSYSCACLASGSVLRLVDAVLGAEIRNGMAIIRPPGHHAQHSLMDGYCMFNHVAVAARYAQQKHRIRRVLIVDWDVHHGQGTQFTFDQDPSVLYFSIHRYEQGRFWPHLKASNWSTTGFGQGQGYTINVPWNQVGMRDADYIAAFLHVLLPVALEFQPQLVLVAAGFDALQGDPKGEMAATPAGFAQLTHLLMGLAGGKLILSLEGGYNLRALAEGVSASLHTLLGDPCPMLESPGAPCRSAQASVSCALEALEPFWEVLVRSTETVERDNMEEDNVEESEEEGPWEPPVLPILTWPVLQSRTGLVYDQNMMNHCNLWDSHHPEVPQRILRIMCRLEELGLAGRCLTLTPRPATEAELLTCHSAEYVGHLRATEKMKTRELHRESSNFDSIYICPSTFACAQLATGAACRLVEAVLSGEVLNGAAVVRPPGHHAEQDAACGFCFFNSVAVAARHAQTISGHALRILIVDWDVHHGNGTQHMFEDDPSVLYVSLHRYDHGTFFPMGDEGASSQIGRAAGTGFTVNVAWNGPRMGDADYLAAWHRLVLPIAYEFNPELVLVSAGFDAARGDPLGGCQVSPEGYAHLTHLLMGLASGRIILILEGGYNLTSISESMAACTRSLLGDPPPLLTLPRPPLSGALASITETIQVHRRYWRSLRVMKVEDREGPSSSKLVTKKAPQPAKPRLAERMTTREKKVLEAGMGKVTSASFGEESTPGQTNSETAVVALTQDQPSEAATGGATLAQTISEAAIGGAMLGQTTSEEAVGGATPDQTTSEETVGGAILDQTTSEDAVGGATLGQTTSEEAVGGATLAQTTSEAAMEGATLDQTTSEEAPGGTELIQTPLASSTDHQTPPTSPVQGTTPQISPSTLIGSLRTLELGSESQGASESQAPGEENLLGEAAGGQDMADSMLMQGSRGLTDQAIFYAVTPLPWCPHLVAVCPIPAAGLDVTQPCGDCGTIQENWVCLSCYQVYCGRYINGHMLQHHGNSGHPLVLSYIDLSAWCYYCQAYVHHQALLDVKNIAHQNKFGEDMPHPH

[5] = target: Programmed cell death protein 1/Programmed cell death 1 ligand 1 (Homo sapiens, UniProt Q9NZQ7); experiment: as §1; assay type: protein-complex assay
Programmed cell death protein 1/Programmed cell death 1 ligand 1, sequence (Q15116 whole entry): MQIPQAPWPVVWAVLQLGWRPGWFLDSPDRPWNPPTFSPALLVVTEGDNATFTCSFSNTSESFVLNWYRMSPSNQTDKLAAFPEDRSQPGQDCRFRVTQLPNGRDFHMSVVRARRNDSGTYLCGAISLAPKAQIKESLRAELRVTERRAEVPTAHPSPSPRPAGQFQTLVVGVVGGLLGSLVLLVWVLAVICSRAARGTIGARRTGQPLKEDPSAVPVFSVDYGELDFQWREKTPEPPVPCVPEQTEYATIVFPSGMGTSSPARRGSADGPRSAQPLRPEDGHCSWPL
Programmed cell death protein 1/Programmed cell death 1 ligand 1, sequence (Q9NZQ7 whole entry): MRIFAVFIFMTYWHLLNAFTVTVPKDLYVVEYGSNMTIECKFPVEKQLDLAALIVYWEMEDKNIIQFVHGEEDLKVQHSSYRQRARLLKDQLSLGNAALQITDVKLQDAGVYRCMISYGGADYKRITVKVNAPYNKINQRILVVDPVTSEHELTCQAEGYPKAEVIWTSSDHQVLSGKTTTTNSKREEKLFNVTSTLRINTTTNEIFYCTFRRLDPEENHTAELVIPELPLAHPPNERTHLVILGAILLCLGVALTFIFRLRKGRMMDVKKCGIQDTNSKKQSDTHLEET

Histone deacetylase 3 [6] = target: T2, Histone deacetylase 3; experiment: Inhibition of human recombinant HDAC3 using Ac-Leu-Gly-Lys (Ac)-AMC as substrate preincubated for 10 mins followed by substrate addition and measured after 45 mins by TECAN microtiter plate reader analysis
Histone deacetylase 3 [7] = target: T2, Histone deacetylase 3; experiment: Inhibition of human recombinant HDAC3 using Ac-Leu-Gly-Lys (Ac)-AMC as substrate at 0.1 uM preincubated for 10 mins followed by substrate addition and measured after 45 mins by TECAN microtiter plate reader analysis relative to control; conditions: time 55.0 min
A-375 = experiment: Antiproliferative activity against human A-375 cells assessed as cell growth inhibition incubated for 48 hrs by MTT assay; assay type: functional, cell-based; conditions: A-375, 48 h
[8] = target: T5, Histone deacetylase 3 (Mus musculus) (UniProt O88895); experiment: Inhibition of HDAC3 in mouse B16-F10 cells assessed as upregulation of Ac-H3 level at 3 uM incubated for 24 hrs by Western blotting analysis; assay type: cell-based
T5 sequence (whole entry): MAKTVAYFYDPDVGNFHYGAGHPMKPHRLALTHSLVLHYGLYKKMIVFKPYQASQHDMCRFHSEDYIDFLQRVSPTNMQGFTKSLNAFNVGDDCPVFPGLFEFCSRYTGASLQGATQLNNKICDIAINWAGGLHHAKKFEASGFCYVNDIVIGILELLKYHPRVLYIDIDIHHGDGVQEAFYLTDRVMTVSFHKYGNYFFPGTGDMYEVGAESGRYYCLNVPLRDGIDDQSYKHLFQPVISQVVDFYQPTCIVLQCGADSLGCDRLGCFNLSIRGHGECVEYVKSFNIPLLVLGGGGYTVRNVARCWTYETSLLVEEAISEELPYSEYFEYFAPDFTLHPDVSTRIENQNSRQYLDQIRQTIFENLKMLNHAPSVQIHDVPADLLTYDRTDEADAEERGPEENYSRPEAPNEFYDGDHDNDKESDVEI

HepG2 = experiment: Antiproliferative activity against human HepG2 cells assessed as cell growth inhibition incubated for 48 hrs by MTT assay; assay type: functional, cell-based; conditions: HepG2, 48 h
4T1 = experiment: Antiproliferative activity against mouse 4T1 cells assessed as cell growth inhibition incubated for 48 hrs by MTT assay; assay type: functional, cell-based; conditions: 4T1, 48 h
B16-F10 = experiment: Antiproliferative activity against mouse B16-F10 cells assessed as cell growth inhibition incubated for 48 hrs by MTT assay; assay type: functional, cell-based; conditions: B16-F10, 48 h
MDA-MB-231 = experiment: Antiproliferative activity against human MDA-MB-231 cells assessed as cell growth inhibition incubated for 48 hrs by MTT assay; assay type: functional, cell-based; conditions: MDA-MB-231, 48 h
HCT-116 = experiment: Antiproliferative activity against human HCT-116 cells assessed as cell growth inhibition incubated for 48 hrs by MTT assay; assay type: functional, cell-based; conditions: HCT-116, 48 h

Row | inhibition (Histone deacetylase 3 [3]) | inhibition (Histone deacetylase 3 [7]) | SMILES | inhibition [1] | inhibition [2] | further results
1 | < 50% | – | CCCNNC(=O)c1cnc(NCCNCc2ccc(-c3cccc(-c4ccccc4)c3C)nc2OC)nc1 | 44.5% | 95.1% | –
2 | 82% | 53.6% | CCCNNC(=O)CCCCCNCc1ccc(-c2cccc(-c3ccccc3)c2C)nc1OC | 37.3% | 92.7% | IC50 (Histone deacetylase 1): 0.535 µM; IC50 (Histone deacetylase 8): > 10 µM; IC50 [4]: > 10 µM; IC50 [5]: 0.213 µM; IC50 (Histone deacetylase 3 [6]): 0.106 µM
3 | 55.8% | – | CCCNNC(=O)CCCCCCNCc1ccc(-c2cccc(-c3ccccc3)c2C)nc1OC | 12.5% | 89.8% | –
4 | 79.7% | 40.2% | CCCNNC(=O)c1cnc(NCCNCc2ccc(-c3cccc(-c4ccccc4)c3C)nc2OC)cn1 | 46% | 94.4% | IC50 (A-375): 10.2 µM; inhibition [8]: Active; IC50 (Histone deacetylase 1): 2.15 µM; IC50 (HepG2): 7.01 µM; IC50 (Histone deacetylase 8): > 10 µM; IC50 [4]: > 10 µM; IC50 [5]: 0.0649 µM; IC50 (4T1): 7.48 µM; IC50 (B16-F10): 6.93 µM; IC50 (Histone deacetylase 3 [6]): 0.168 µM; IC50 (MDA-MB-231): 13.9 µM; IC50 (HCT-116): 14.7 µM
5 | 67.2% | 36% | CCCNNC(=O)CCNCc1ccc(-c2cccc(-c3ccccc3)c2C)nc1OC | 58.8% | 92.4% | –
6 | 69.5% | 38.5% | CCCNNC(=O)c1ccc(NCCNCc2ccc(-c3cccc(-c4ccccc4)c3C)nc2OC)nn1 | 9.3% | 78.5% | –
7 | 79.4% | 41.9% | CCCNNC(=O)CCCCNCc1ccc(-c2cccc(-c3ccccc3)c2C)nc1OC | 54.4% | 92.5% | IC50 (Histone deacetylase 1): 0.459 µM; IC50 (Histone deacetylase 8): > 10 µM; IC50 [4]: > 10 µM; IC50 [5]: 0.0716 µM; IC50 (Histone deacetylase 3 [6]): 0.111 µM
8 | < 50% | – | CCCNNC(=O)c1cnc(NCCCNCc2ccc(-c3cccc(-c4ccccc4)c3C)nc2OC)cn1 | 18.8% | 80.9% | –
9 | 74.3% | 46.8% | CCCNNC(=O)c1ccc(C(=O)NCCNCc2ccc(-c3cccc(-c4ccccc4)c3C)nc2OC)cc1 | 23.4% | 88.1% | –

The next lines start with the compound.

Row | SMILES | inhibition (Histone deacetylase 3 [3]) | inhibition (Histone deacetylase 3 [7]) | inhibition [1] | inhibition [2] | further results
10 | CCCNNC(=O)c1cnc(N(C)CCN(C)Cc2ccc(-c3cccc(-c4ccccc4)c3C)nc2OC)nc1 | – | – | 5.96% | 28.8% | –
11 | CCCNNC(=O)c1cnc(N2CCC(NCc3ccc(-c4cccc(-c5ccccc5)c4C)nc3OC)CC2)nc1 | < 50% | – | 3.6% | 71.7% | –
12 | CCCNNC(=O)CC1CCCN(Cc2ccc(-c3cccc(-c4ccccc4)c3C)nc2OC)C1 (stereo not given) | – | – | 4.75% | 59.1% | –
13 | CCCNNC(=O)c1ccc(NCCNCc2ccc(-c3cccc(-c4ccccc4)c3C)nc2OC)cc1 | – | – | 4.12% | 11.1% | –
14 | CCCNNC(=O)C1CCN(Cc2ccc(-c3cccc(-c4ccccc4)c3C)nc2OC)CC1 | 71.3% | 33.2% | 21.7% | 82.7% | –
15 | CCCNNC(=O)c1ccc(NCc2ccc(-c3cccc(-c4ccccc4)c3C)nc2OC)c(C)c1 | – | – | -0.25% | 4.65% | –
16 | CCCNNC(=O)CC1CCN(Cc2ccc(-c3cccc(-c4ccccc4)c3C)nc2OC)CC1 | < 50% | – | 25.7% | 89.4% | –
17 | CCCNNC(=O)c1ccc(CNCc2ccc(-c3cccc(-c4ccccc4)c3C)nc2OC)cc1 | – | – | 11.3% | 42.4% | –
18 | CCCNNC(=O)c1cnc(N2CC(NCc3ccc(-c4cccc(-c5ccccc5)c4C)nc3OC)C2)nc1 | – | – | 17.8% | 68.2% | –
19 | CCCNNC(=O)c1cnc(N2CC(NCc3ccc(-c4cccc(-c5ccccc5)c4C)nc3OC)C2)cn1 | – | – | 13.5% | 54.5% | –
20 | CCCNNC(=O)c1ccc(NCc2ccc(-c3cccc(-c4ccccc4)c3C)nc2OC)cc1 | – | – | 1.83% | 7.61% | –
21 | CCCNNC(=O)c1cnc(N2CCC(NCc3ccc(-c4cccc(-c5ccccc5)c4C)nc3OC)CC2)cn1 | – | – | 7.82% | 62.6% | –
22 | CCCNNC(=O)CNCc1ccc(-c2cccc(-c3ccccc3)c2C)nc1OC | – | – | 19.5% | 68.9% | –
